Source: patent publication US7390641B2, “Production of peroxidase from plant cell and callus cultures” (Council of Scientific and Industrial Research, priority 2004, dated 2008)
Like-named read-outs stand apart in the source and are kept apart here.

Assays:
[1] = tested on: callus cultures of Nirgundi (Vitex negundo); assay: Effect of growth regulators on callus growth and enzyme activity of callus cultures; assay type: cell-based; details: MS medium, Vitex negundo leaf callus; result in words
Excerpt: Leaf tissues were taken as explants for callus initiation after being properly washed in 10% Labolene followed by surface sterilization in 0.1% Mercuric chloride under aseptic conditions and inoculated in Murashige and Skoog (MS) medium containing 3% sucrose, 0.8% agar in addition to plant growth regulators like kinetin (6-furfuryl amino purine), BAP (benzyl amino purine), 2,4-D (2,4-dichlorophenoxyacetic acid), NAA (naphthalene acetic acid), IBA (indole-3-butyric acid) alone and in different combinations and sub culturing was also done in similar hormone combinations for proliferation. When no hormone was supplied in the medium, callus growth was very slow albeit showing good peroxidase activity. […] The pH was kept at 5.8 in all the experiments. Once established, the liquid suspension was maintained by the sub-culturing of 10 ml each of 7 day culture into 100 ml of fresh media in 250 ml Erlenmeyer flasks and the CCAs were also maintained by the subsequent sub-culturing of 5 g each of the sample into fresh liquid media and the flasks were placed on a gyratory shaker at 120 rpm in the light at 25° C. Viability as well as activity was maintained even after a period of 6 months.

[2] = tested on: Vitex extra cellular peroxidase; assay type: biochemical, Vitex negundo

SMILES | Relative activity(%) ([2]; Reagent 1 Mm, None = 100) | Effect on Vitex peroxidase activity (inhibitor / enhancer / no change) ([2]; result in words) | other results
O=C(O)COc1ccc(Cl)cc1Cl [2,4-D, 2,4-dichlorophenoxyacetic acid] |  |  | Effect on callus growth and enzyme activity [1]: reduce both the callus growth as well as enzyme activity
c1ccc(CNc2ncnc3[nH]cnc23)cc1 [BA, benzyl amino purine] |  |  | Effect on callus growth and enzyme activity [1]: better callus growth as well as enzyme activity
[Ca+2].[Cl-].[Cl-] [CaCl2] | 103 | no change in activity | 
O=C(O)CN(CCN(CC(=O)O)CC(=O)O)CC(=O)O [EDTA] |  |  | Effect on Vitex peroxidase activity (inhibitor / enhancer / no change) [2]: enhancers; Relative activity(%) [2]: 113%
[Cl][Hg][Cl] [HgCl2] | 62 | Inhibitors | inhibition ([2]; HgCl2, text b118): 60%
O=C(O)Cc1c[nH]c2ccccc12 [IAA] |  |  | Effect on callus growth and enzyme activity [1]: reduce both the callus growth as well as enzyme activity
[I-].[K+] [KI] | 116 |  | 
O=S(=O)([O-])[O-].[Mg+2] [MgSO4] | 97 | no change in activity | 
O=S(=O)([O-])[O-].[Mn+2] [MnSO4] | 131 | enhancers | 
[Cl-].[Na+] [NaCl] |  |  | Effect on Vitex peroxidase activity (inhibitor / enhancer / no change) [2]: enhancers; Relative activity(%) [2]: 110%
[N-]=[N+]=[N-].[Na+] [NaN3, sodium azide] | 73 | enhancers | inhibition (reduction in activity) ([2]; 0.1 ml of 1 mM sodium azide in 2.4 ml of total assay volume): 30%
O=S(=O)([O-])[O-].[Zn+2] [ZnSO4] | 138 | enhancers | 
